# Entries after “also recorded” stand apart in the source; their conditions may differ.
# Legend:
# [1] = tested on: Mouse sarcoma 180 cells; test: Survival of ICR mouse after intraperitoneal transplantation of mouse sarcoma 180 cells; type: in vivo; conditions: male ICR mouse, sarcoma 180 cells intraperitoneally transplanted, 300 mg/kg for ten days, observation for 19 days
# Experimental: Mouse sarcoma 180 cells were intraperitoneally transplanted (1×10^6) to male ICR mouse and, from the next day of the transplantation, BCH which was a inhibitor for the amino acid transporter, D-Leu having a inhibiting effect on amino acid transporter and D-Ala having no inhibiting action thereon were administered at the dose of 300 mg/kg for ten days. After the transplantation, it was confirmed every day whether the mouse was dead or alive.
# [2] = biological target: T1, human amino acid transporter LAT1 (Homo sapiens, UniProt Q01650); test: Incorporation of 14C-labeled amino acids into oocytes co-expressing human LAT1 and human 4F2hc; type: cell-based; design: expressed in transfected cells; conditions: for incorporation of 14C-labeled amino acid into oocytes: oocytes co-expressing human LAT1 and human 4F2hc, 14C-labeled substrate 50 μM, 30 minutes; for incorporation in a cell in which human LAT1 and human 4F2hc are co-expressed: summary statement of the disclosure
# [3] = tested on: rat liver cell line where LAT1 was highly expressed; test: Cell proliferation of cultured rat liver cell line, Cell Counting Kit-8; type: cell-based; conditions: 20 mM added to William's medium, incubation for 48 hours
# Experimental: A rat liver cell line where LAT1 was highly expressed was incubated on a William's medium, 20 mM of D-leucine or BCH which suppressed the incorporation mediated by LAT1 were added to the medium and, by means of an incubation for 48 hours, cell numbers were investigated using a Cell Counting Kit-8 (manufactured by Dojindo Laboratories). The cell numbers were measured as an absorption at 450 nm (O.D. 450).
# [4] = biological target: T1, human amino acid transporter LAT1; test: Competitive antagonism test: incorporation of 14C-labeled leucine or phenylalanine into oocytes co-expressing human LAT1 and human 4F2hc in the presence of test substance; type: cell-based; design: expressed in transfected cells; conditions: test substance 2 mM, 30 minutes; for inhibition of incorporation of 14C-labeled leucine mediated by the human LAT1: 14C-labeled leucine 20 μM, choline chloride uptake solution
# [5] = tested on: T24 cells derived from human bladder cancer; test: Inhibition of 14C-leucine incorporation by T24 cells by amino acids and similar substances; type: cell-based; conditions: 14C-leucine 20 μM, 2 mM unlabeled compound
# [6] = biological target: T2, rat neutral amino acid transporter LAT1 (Rattus norvegicus, UniProt Q63016); test: Incorporation of radiolabeled amino acids into oocytes injected with rat LAT1 and rat 4F2hc cRNA; type: cell-based; design: expressed in transfected cells; host or cells: oocytes (Xenopus laevis by the cited method of Kanai and Hediger) injected with rat LAT1 cRNA and rat 4F2hc cRNA; conditions: 14C compounds as substrates
# Experimental: Thus, the oocytes into which rat LAT1 gene cRNA, rat 4F2hc gene cRNA or rat LAT1 gene cRNA/rat 4F2hc gene cRNA was injected were incubated for 30 minutes in an uptake solution containing ^14C-leucine (50 μM) and incorporation of radioactivity into the oocytes was measured.
# As a substrate however, various radiolabeled compounds were used in place of ^14C-leucine.
# [7] = biological target: T2, rat neutral amino acid transporter LAT1; test: Inhibition of 14C-leucine incorporation into oocytes injected with rat LAT1 and rat 4F2hc cRNA by amino acids and similar substances; type: cell-based; design: expressed in transfected cells; host or cells: oocytes (Xenopus laevis by the cited method of Kanai and Hediger) injected with rat LAT1 cRNA and rat 4F2hc cRNA; conditions: rat LAT1/rat 4F2hc oocytes; 14C-leucine 20 μM, 2 mM unlabeled compound, choline uptake solution
# [8] = biological target: T2, rat neutral amino acid transporter LAT1; conditions: read-out: Km value; leucine as substrate; oocytes injected with rat LAT1 and rat 4F2hc cRNA
# [9] = biological target: T1, human amino acid transporter LAT1; conditions: read-out: Michaelis constant (Km); leucine as substrate; Xenopus laevis oocytes co-expressing human LAT1 and human 4F2hc
# [10] = tested on: T24 cells derived from human bladder cancer; test: Michaelis-Menten kinetic test for the incorporation of leucine by T24 cells; type: cell-based; conditions: leucine as substrate
# Experimental: T24 cells derived from human bladder cancer were incubated and maintained in an Eagle's minimal essential medium containing 10% of fetal bovine serum. A test for the incorporation of amino acids into T24 cells was carried out by incubating the T24 cells on a 24-well plate and finished when the state became confluent. The amino acid incorporation test was started by removing the incubating solution and adding a Dulbecco's PBS (manufactured by Gibco) containing ^14C-amino acid and finished by removing it, cooling with ice and washing with a Dulbecco's PBS. After washing, the above was dissolved in 0.1N NaOH and the radioactivity was measured by a liquid scintillation counter.
# A Michaelis-Menten kinetic test was carried out for the incorporation of leucine by T24 cells. The Michaelis-Menten kinetic test was conducted by investigating the changes in the incorporated rate of leucine by the difference in the concentration of the substrate leucine.
# T1 sequence (Q01650 whole entry): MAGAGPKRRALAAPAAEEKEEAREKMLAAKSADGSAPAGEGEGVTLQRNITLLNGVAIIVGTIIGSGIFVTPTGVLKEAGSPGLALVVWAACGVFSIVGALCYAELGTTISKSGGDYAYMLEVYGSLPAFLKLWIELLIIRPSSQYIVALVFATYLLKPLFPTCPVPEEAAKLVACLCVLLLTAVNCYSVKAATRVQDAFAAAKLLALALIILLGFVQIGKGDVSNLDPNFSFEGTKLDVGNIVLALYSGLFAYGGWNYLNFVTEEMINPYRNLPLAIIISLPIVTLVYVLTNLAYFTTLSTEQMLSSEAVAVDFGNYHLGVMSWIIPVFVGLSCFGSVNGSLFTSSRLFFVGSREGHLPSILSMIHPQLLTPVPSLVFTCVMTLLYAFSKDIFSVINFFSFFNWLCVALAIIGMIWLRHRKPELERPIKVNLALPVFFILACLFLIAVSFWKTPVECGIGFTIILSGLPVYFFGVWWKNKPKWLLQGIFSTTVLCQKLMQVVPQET
# T1 sequence (as listed by the source partner): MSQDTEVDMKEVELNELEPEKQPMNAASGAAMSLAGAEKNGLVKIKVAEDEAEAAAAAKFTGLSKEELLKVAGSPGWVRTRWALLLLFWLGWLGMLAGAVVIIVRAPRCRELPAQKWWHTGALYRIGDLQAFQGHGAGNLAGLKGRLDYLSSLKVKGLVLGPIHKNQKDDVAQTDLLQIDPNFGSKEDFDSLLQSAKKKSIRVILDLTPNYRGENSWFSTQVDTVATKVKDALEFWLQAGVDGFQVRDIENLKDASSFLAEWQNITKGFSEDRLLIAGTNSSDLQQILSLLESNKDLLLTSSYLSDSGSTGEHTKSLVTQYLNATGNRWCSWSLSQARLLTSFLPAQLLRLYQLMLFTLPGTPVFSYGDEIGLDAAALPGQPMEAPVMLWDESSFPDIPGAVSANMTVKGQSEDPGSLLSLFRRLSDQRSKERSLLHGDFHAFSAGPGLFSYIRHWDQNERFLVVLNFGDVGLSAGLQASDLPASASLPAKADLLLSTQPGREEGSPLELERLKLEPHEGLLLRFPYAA
# T2 sequence (Q63016 whole entry): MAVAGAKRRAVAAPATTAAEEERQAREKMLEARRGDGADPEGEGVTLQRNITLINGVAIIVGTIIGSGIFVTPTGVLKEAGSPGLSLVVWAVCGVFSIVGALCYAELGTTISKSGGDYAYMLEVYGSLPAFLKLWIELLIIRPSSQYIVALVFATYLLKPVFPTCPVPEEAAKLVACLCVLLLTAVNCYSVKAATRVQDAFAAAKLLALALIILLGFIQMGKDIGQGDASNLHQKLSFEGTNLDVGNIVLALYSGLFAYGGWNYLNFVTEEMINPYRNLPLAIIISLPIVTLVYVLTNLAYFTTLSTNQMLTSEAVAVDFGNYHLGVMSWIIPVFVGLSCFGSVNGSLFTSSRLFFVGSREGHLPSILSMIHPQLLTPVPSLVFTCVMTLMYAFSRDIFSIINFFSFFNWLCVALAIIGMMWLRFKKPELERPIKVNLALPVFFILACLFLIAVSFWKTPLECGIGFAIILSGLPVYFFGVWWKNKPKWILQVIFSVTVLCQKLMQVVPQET
# T2 sequence (Q794F9 whole entry partner): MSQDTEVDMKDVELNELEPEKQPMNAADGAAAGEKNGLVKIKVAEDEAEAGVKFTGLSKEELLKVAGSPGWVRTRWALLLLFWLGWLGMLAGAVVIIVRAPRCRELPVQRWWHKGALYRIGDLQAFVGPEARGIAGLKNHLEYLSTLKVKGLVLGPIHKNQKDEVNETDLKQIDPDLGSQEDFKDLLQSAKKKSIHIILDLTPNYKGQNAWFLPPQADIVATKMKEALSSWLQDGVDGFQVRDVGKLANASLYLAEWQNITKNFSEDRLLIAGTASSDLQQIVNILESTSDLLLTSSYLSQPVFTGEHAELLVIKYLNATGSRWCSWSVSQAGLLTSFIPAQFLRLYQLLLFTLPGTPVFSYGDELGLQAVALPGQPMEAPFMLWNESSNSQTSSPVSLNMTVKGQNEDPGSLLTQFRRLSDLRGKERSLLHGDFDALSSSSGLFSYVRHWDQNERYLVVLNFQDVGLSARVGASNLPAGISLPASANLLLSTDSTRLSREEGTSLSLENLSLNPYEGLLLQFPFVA
SMILES,incorporation of 14C-labeled amino acid into oocytes [2],incorporation in a cell in which human LAT1 and human 4F2hc are co-expressed [2],inhibition of incorporation of 14C-labeled leucine mediated by the human LAT1 [4],inhibition of incorporation of 14C-leucine by T24 cells [5],incorporation of radiolabeled substrate into the oocytes [6],inhibition of incorporation of 14C-leucine mediated by LAT1 [7],other results
C[C@@H](N)C(=O)O [D-Ala],–,–,–,–,–,–,survival effect [1]: No survival effect
CC(C)C[C@@H](N)C(=O)O [D-leucine],incorporated,–,–,–,–,–,cell numbers (O.D. 450) compared with control group [3]: a reduction in the cell numbers was noted; survival effect [1]: significant survival effect
N[C@H](Cc1ccccc1)C(=O)O [D-phenylalanine],incorporated,–,–,–,–,–,–
N[C@@H](Cc1ccc(O)c(O)c1)C(=O)O [L-DOPA],–,confirmed,–,–,–,–,"inhibition of incorporation of 14C-labeled phenylalanine into oocytes ([4]; 14C-labeled phenylalanine instead of leucine, choline uptake solution): strongly inhibited"
N=C(N)NCCC[C@H](N)C(=O)O [arginine],–,–,not affected at all,–,–,–,–
NC(=O)C[C@H](N)C(=O)O [asparagine],–,significant incorporation,–,–,–,–,–
N[C@@H](CC(=O)O)C(=O)O [aspartic acid],–,–,not affected at all,–,–,–,–
N[C@@H](CS)C(=O)O [cysteine],–,significant incorporation,–,strong cis-inhibiting effect,–,–,–
N[C@@H](CCC(=O)O)C(=O)O [glutamic acid],–,–,not affected at all,–,–,–,–
NC(=O)CC[C@H](N)C(=O)O [glutamine],–,significant incorporation,–,–,–,–,–
N[C@@H](Cc1c[nH]cn1)C(=O)O [histidine],significantly incorporated,very strong incorporation,strongly inhibited,strong cis-inhibiting effect,incorporation into the oocytes was noted,strongly inhibited,–
CC[C@H](C)[C@H](N)C(=O)O [isoleucine],significantly incorporated,very strong incorporation,strongly inhibited,strong cis-inhibiting effect,incorporation into the oocytes was noted,strongly inhibited,–
CC(C)C[C@H](N)C(=O)O [leucine],large incorporation; also recorded: significantly incorporated,very strong incorporation,strongly inhibited,strong cis-inhibiting effect,big incorporation; also recorded: incorporation into the oocytes was noted,strongly inhibited,"Km [8]: ~24 µM; Km [9]: ~21 µM; Km [10]: 100 µM; Vmax value of leucine incorporation [10]: 23,870 pmol/mg protein/minute"
NCCCC[C@H](N)C(=O)O [lysine],–,–,not affected at all,–,–,–,–
N[C@@H](Cc1ccc(N(CCCl)CCCl)cc1)C(=O)O [melphalan],–,–,–,–,–,inhibited,–
CSCC[C@H](N)C(=O)O [methionine],significantly incorporated,very strong incorporation,strongly inhibited,strong cis-inhibiting effect,incorporation into the oocytes was noted,strongly inhibited,–
N[C@@H](Cc1ccccc1)C(=O)O [phenylalanine],significantly incorporated,very strong incorporation,strongly inhibited,strong cis-inhibiting effect,incorporation into the oocytes was noted,strongly inhibited,–
C[C@@H](O)[C@H](N)C(=O)O [threonine],–,significant incorporation,–,–,–,–,–
N[C@@H](Cc1cc(I)c(Oc2cc(I)c(O)c(I)c2)c(I)c1)C(=O)O [thyroxin],–,–,–,–,–,inhibited,–
N[C@@H](Cc1c[nH]c2ccccc12)C(=O)O [tryptophan],significantly incorporated,very strong incorporation,strongly inhibited,strong cis-inhibiting effect,incorporation into the oocytes was noted,strongly inhibited,–
N[C@@H](Cc1ccc(O)cc1)C(=O)O [tyrosine],significantly incorporated,very strong incorporation,strongly inhibited,strong cis-inhibiting effect,incorporation into the oocytes was noted,strongly inhibited,–
CC(C)[C@H](N)C(=O)O [valine],significantly incorporated,very strong incorporation,strongly inhibited,strong cis-inhibiting effect,incorporation into the oocytes was noted,strongly inhibited,–

# Source: US7413895B2, “DNA encoding neutral amino acid transporter” (Japan Science and Technology Corporation, priority 1998, dated 2008)
